# According to PMC5514153, “Targeting PTPRZ inhibits stem cell-like properties and tumorigenicity in glioblastoma cells” (Scientific Reports, 2017):
# Target: T1, hPTPN6 (Homo sapiens, UniProt P29350)
# T1 construct: the catalytic domains of PTPN1 and PTPN6 were expressed as glutathione-S-transferase (GST) fusion proteins; GST (N); made in house; host or cells: Escherichia coli BL21
# T1 sequence (P29350 244-515 limits assumed): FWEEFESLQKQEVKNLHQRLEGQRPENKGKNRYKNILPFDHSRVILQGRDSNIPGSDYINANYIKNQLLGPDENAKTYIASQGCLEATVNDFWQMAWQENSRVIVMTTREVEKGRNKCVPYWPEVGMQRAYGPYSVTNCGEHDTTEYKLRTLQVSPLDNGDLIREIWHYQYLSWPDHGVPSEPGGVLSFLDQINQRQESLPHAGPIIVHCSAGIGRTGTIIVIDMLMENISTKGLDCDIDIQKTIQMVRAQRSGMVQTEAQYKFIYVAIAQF
# Assay: In vitro PTPase assay (DiFMUP), PTPN6
# Format: biochemical
# Conditions: 60-min preincubation
# Protocol: Figure 4 NAZ2329, an allosteric inhibitor of R5 RPTP subfamily members. (A) Structure of NAZ2329. (B) Effect of preincubation of NAZ2329 on its inhibitory activity against PTPRZ. Recombinant human PTPRZ1 enzyme (the whole intracellular region) was premixed with NAZ2329 for the indicated times and followed by addition of a fluorogenic DiFMUP (non-specific PTP substrate, 6,8-difluoro-4-methylumbiliferyl phosphate) to measure PTP inhibitory activity. (C) Time dependence. The PTPRZ1 enzyme was added to the inhibitor–substrate mixture, and the inhibitory activity was determined at each time point relative to the vehicle control. (D) Reversibility of inhibition. […] The mixture was then 20-fold diluted, and recovered PTP activity was expressed as the relative activity compared with the vehicle-treated enzyme. […] PTPRZ1 enzymes were preincubated with NAZ2329 for 60 min, and the PTP activity was measured using DiFMUP. […]
# Recombinant proteins corresponding to the entire intracellular regions (ICRs) of PTPRZ1, PTPRA, and PTPRM were expressed using a baculovirus-silkworm expression system, and purified as described. The ICRs of PTPRG, PTPRS, and PTPRB and the catalytic domains of PTPN1 and PTPN6 were expressed as glutathione-S-transferase (GST) fusion proteins from each pGEX plasmid in Escherichia coli strain BL21 (ref. [6]). […]
smiles,measurement,value
CCOc1ccc(C(F)(F)F)cc1CSc1ccsc1C(=O)NS(=O)(=O)c1ccccc1 [NAZ2329],IC50,15.2 µM
